According to patent US9346786B2, “Pyrrolidine compounds” (Hoffmann-La Roche Inc., priority 2009, dated 2016):

biological target: recombinant human NK3 receptor (Homo sapiens (Human), UniProt P29371); test: biochemical; type: binding; settings: [3H]SR142801, membranes of HEK293 cells transiently expressing recombinant human NK3 receptor; read-out: Data Ki (hNK-3 receptor affinity)
Sequence (P29371 whole entry): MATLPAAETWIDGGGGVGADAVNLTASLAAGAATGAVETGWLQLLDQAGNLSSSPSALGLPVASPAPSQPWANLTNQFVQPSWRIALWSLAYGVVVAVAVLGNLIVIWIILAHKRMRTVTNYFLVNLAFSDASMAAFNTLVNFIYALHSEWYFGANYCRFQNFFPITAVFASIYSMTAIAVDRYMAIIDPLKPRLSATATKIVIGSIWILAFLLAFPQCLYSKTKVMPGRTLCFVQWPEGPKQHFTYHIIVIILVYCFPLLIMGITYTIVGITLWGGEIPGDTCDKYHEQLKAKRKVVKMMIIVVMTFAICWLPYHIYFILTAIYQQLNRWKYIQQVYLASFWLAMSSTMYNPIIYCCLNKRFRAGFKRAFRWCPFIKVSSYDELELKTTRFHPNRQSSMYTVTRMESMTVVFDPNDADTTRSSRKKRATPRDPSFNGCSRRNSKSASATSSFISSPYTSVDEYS

SMILES | Ki
CCN(C(=O)Oc1ccc(F)cc1)[C@@H]1CN(C(=O)C2CCN(C(=O)c3cnc(C(F)(F)F)cn3)CC2)C[C@H]1c1ccc(Cl)c(F)c1 [Example 78, {(3S,4R)-4-(4-Chloro-3-fluoro-phenyl)-1-[1-(5-trifluoromethyl-pyrazine-2-carbonyl)-piperidine-4-carbonyl]-pyrrolidin-3-yl}-ethyl-carbamic acid 4-fluoro-phenyl ester] | 5 nM
CCN(C(=O)Oc1ccc(F)cc1)[C@@H]1CN(C(=O)C2CCN(c3ccc(C#N)nn3)CC2)C[C@H]1c1ccc(Cl)c(F)c1 [Example 57, {(3S,4R)-4-(4-Chloro-3-fluoro-phenyl)-1-[1-(6-cyano-pyridazin-3-yl)-piperidine-4-carbonyl]-pyrrolidin-3-yl}-ethyl-carbamic acid 4-fluoro-phenyl ester] | 0.7 nM
CCN(C(=O)Oc1ccc(F)cc1)[C@@H]1CN(C(=O)C2CCN(C(=O)c3ccc(C#N)cc3)CC2)C[C@H]1c1ccc(Cl)c(F)c1 [Example 76, {(3S,4R)-4-(4-Chloro-3-fluoro-phenyl)-1-[1-(4-cyano-benzoyl)-piperidine-4-carbonyl]-pyrrolidin-3-yl}-ethyl-carbamic acid 4-fluoro-phenyl ester] | 17 nM
CCN(C(=O)Oc1ccc(F)cc1)[C@@H]1CN(C(=O)C2CCN(S(C)(=O)=O)CC2)C[C@H]1c1ccc(Cl)c(F)c1 [Example 81, [(3S,4R)-4-(4-Chloro-3-fluoro-phenyl)-1-(1-methanesulfonyl-piperidine-4-carbonyl)-pyrrolidin-3-yl]-ethyl-carbamic acid 4-fluoro-phenyl ester] | 29 nM
CCN(C(=O)Oc1ccc(F)cc1)[C@@H]1CN(C(=O)C2CCN(C(=O)C3CCC3)CC2)C[C@H]1c1ccc(Cl)cc1 [Example 87, [(3S,4R)-4-(4-Chloro-phenyl)-1-(1-cyclobutanecarbonyl-piperidine-4-carbonyl)-pyrrolidin-3-yl]-ethyl-carbamic acid 4-fluoro-phenyl ester] | 2.1 nM
CCN(C(=O)Oc1ccc(F)cc1)[C@@H]1CN(C(=O)C2CCN(c3ccc(C(C)(C)O)cn3)CC2)C[C@H]1c1ccc(Cl)c(F)c1 [Example 83, {(3S,4R)-4-(4-Chloro-3-fluoro-phenyl)-1-[5′-(1-hydroxy-1-methyl-ethyl)-3,4,5,6-tetrahydro-2H-[1,2′]bipyridinyl-4-carbonyl]-pyrrolidin-3-yl}-ethyl-carbamic acid 4-fluoro-phenyl ester] | 3.8 nM
CCN(C(=O)Oc1ccc(F)cc1)[C@@H]1CN(C(=O)C2CCN(c3ccc(C(C)=O)cn3)CC2)C[C@H]1c1ccc(F)c(Cl)c1 [Example 120, [(3S,4R)-1-(5′-Acetyl-3,4,5,6-tetrahydro-2H-[1,2′]bipyridinyl-4-carbonyl)-4-(3-chloro-4-fluoro-phenyl)-pyrrolidin-3-yl]-ethyl-carbamic acid 4-fluoro-phenyl ester] | 1.7 nM
CCN(C(=O)Oc1ccc(F)cc1)[C@@H]1CN(C(=O)C2CCN(c3ccc(C#N)cn3)CC2)C[C@H]1c1ccc(Cl)cc1 [Example 21, [(3S,4R)-4-(4-Chloro-phenyl)-1-(5′-cyano-3,4,5,6-tetrahydro-2H-[1,2′]bipyridinyl-4-carbonyl)-pyrrolidin-3-yl]-ethyl-carbamic acid 4-fluoro-phenyl ester] | 2 nM
CCN(C(=O)Oc1ccc(F)cc1)[C@H]1CN(C(=O)C2CCN(c3ncc(C#N)cn3)CC2)C[C@@H]1c1ccc(Cl)cc1 [Example 7, {(3R,4S)-4-(4-Chloro-phenyl)-1-[1-(5-cyano-pyrimidin-2-yl)-piperidine-4-carbonyl]-pyrrolidin-3-yl}-ethyl-carbamic acid 4-fluoro-phenyl ester] | 89 nM

same assay, conditions: read-out: Data Ki (hNK-3 receptor affinity)

SMILES | Ki
CCN(C(=O)Oc1ccc(F)cc1)[C@@H]1CN(C(=O)C2CCN(C(=O)C3(C(F)(F)F)CC3)CC2)C[C@H]1c1ccc(Cl)c(F)c1 [Example 71, {(3S,4R)-4-(4-Chloro-3-fluoro-phenyl)-1-[1-(1-trifluoromethyl-cyclopropanecarbonyl)-piperidine-4-carbonyl]-pyrrolidin-3-yl}-ethyl-carbamic acid 4-fluoro-phenyl ester] | 4 nM
